Data: ChEMBL document CHEMBL3861987, “Synthesis, antitumor evaluation and 3D-QSAR studies of [1,2,4]triazolo[4,3-b][1,2,4,5]tetrazine derivatives” (Bioorg Med Chem Lett, 2016)
pIC50: −log10 of the molar value.

Tests used:
MCF-7 (Homo sapiens) = assay: Antiproliferative activity against human MCF-7 cells after 72 hrs by MTT assay; conditions: MCF-7, 72 h; for IC50: read-out: pIC50 (converted); for pIC50: read-out: IC50
[1] = Cytotoxicity against human MCF7 cells assessed as reduction in cell viability after 72 hrs by MTT assay; assay type: functional, cell-based; conditions: MCF7, 72 h
[2] = Cytotoxicity against human Bewo cells assessed as reduction in cell viability after 72 hrs by MTT assay; assay type: functional, cell-based
[3] = Cytotoxicity against human HL60 cells assessed as reduction in cell viability after 72 hrs by MTT assay; assay type: functional, cell-based; conditions: HL-60, 72 h
[4] = Solubility of compound in DMSO; assay type: physicochemical

Compound | IC50 (MCF-7 (Homo sapiens)) [µM] | pIC50 [1] | pIC50 [2] | pIC50 [3] | pIC50 (MCF-7 (Homo sapiens)) | solubility [4]
CCCCCc1nnc2nnc(N3CCCC3)nn12 | 42.9 | 4.37 | 4.55 | 4.37 |  | 
c1nnc2nnc(N3CCCCC3)nn12 | 27.2 |  |  |  | 4.57 | 
C1CCC(c2nnc3nnc(N4CCCC4)nn23)CC1 | 37.7 | 4.42 | 4.66 | 4.62 |  | 
c1nnc2nnc(NC3CCCCC3)nn12 | 3.52 |  |  |  | 5.45 | 
COc1ccc(-c2nnc3nnc(-n4nc(C)cc4C)nn23)cc1 | 16.7 | 4.78 | 4.74 | < 4.00 |  | 
CCCC(=O)N1CCN(c2nnc3nncn3n2)CC1 | 6.92 |  |  |  | 5.16 | 
c1nnc2nnc(NC3CCCC3)nn12 | 88.1 |  |  |  | 4.05 | 
COc1ccc(-c2nnc3nnc(N4CCCCC4)nn23)cc1 |  | < 4.00 | < 4.00 | 4.89 |  | 
O=[N+]([O-])c1ccc(-c2nnc3nnc(N4CCCC4)nn23)cc1 |  | < 4.00 | < 4.00 | < 4.00 |  | 
c1ccc(-c2nnc3nnc(N4CCCC4)nn23)cc1 |  | < 4.00 | < 4.00 | < 4.00 |  | Insoluble
Cc1cc(C)n(-c2nnc3nnc(-c4ccc(Cl)cc4)n3n2)n1 | 5.57 | 5.25 | 4.65 | < 4.00 |  | 
Cc1cc(C)n(-c2nnc3nnc(C(C)C)n3n2)n1 | 33.7 | 4.47 | 5.63 | 5.94 |  | 
Cc1nnc2nnc(N3CCCC3)nn12 | 44.9 | 4.35 | 5.27 | 4.53 |  | 
CCCCNc1nnc2nncn2n1 | 13.7 |  |  |  | 4.86 | 
Clc1ccc(-c2nnc3nnc(N4CCCC4)nn23)c(Cl)c1 | 19.6 | 4.71 | 5.09 | 5.06 |  | 
c1ccc(CN2CCN(c3nnc4nncn4n3)CC2)cc1 | 27.3 |  |  |  | 4.56 | 
CC(C)c1nnc2nnc(N3CCCC3)nn12 | 46.8 | 4.33 | 5.46 | 4.15 |  | 
Clc1ccc(-c2nnc3nnc(N4CCOCC4)nn23)cc1 | 13.1 | 4.88 | 5.39 | 6.20 |  | 
O=C(c1ccc([N+](=O)[O-])cc1)N1CCN(c2nnc3nncn3n2)CC1 | 4.53 |  |  |  | 5.34 | 
Cc1cc(C)n(-c2nnc3nnc(Cc4ccccc4)n3n2)n1 | 54.8 | 4.26 | 5.64 | 5.58 |  | 
Clc1ccc(-c2nnc3nnc(N4CCOCC4)nn23)c(Cl)c1 | 19.3 | 4.71 | 5.77 | 5.32 |  | 
c1ccc(CCNc2nnc3nncn3n2)cc1 | 1.24 |  |  |  | 5.91 | 
Clc1ccccc1-c1nnc2nnc(N3CCCC3)nn12 | 29.6 | 4.53 | 5.52 | 5.58 |  | 
CC(C)COC(=O)N1CCN(c2nnc3nncn3n2)CC1 | 5.38 |  |  |  | 5.27 | 
O=[N+]([O-])c1ccc(-c2nnc3nnc(N4CCCCC4)nn23)cc1 |  | < 4.00 | < 4.00 | 6.21 |  | 
CCC(=O)N1CCN(c2nnc3nncn3n2)CC1 | 14.8 |  |  |  | 4.83 | 
COc1ccc(-c2nnc3nnc(N4CCOCC4)nn23)cc1 |  | < 4.00 | 5.05 | 4.41 |  | 
CC(C)(C)c1nnc2nnc(N3CCCC3)nn12 | 55 | 4.26 | 4.90 | < 4.00 |  | 
CCCNc1nnc2nncn2n1 | 19.8 |  |  |  | 4.70 | 
